Read-outs that look alike come from different tables or passages of the source.
Key:
[1] = system: indomethacin-induced lesions of the stomach; assay: anti-ulcer activity (protection from indomethacin-induced stomach lesions); assay type: in vivo; conditions: Rattus norvegicus, po, male rats, given 1 hour before and 2 hours after 20 mg/kg indomethacin p.o.; dosage protecting 50% of animals from lesions
Method: The experimental procedure described hereinafter was used to determine the anti-ulcer activity:
A number of groups of 8 male rats each with a body weight of 130-150 g are used for each dosage of a test substance. Prior to the beginning of the experiment the animals receive no food for 24 hours, but receive water ad libitum. Various dosages of the substances to be tested (suspended in 0.5% tragacanth) or the vehicle alone (controls) are administered twice perorally, namely. 1 hour before and 2 hours after the peroral administration 20 mg/kg of indomethacin. In the control animals, this dosage of indomethacin leads to lesions of the stomach within 5 hours. The animals are killed 6 hours after the first administration of the substance under investigation (or of the vehicle alone). The rats which remain protected from the occurrence of macroscopically visible lesions to the mucous membrane of the stomach are counted. The ED50 is that dosage of a test substance at which 50% of the animals are protected from the occurence of such lesions.
(§1) In the following Table there are given for a series of representative compounds of formula I the results of the testing with respect to their anti-ulcer activity and to their gastric secretion inhibiting activity. Moreover, this Table contains data concerning the acute toxicity (LD50 in the case of single oral administration to mice).

[2] = acute toxicity (single oral administration); conditions: mouse, in vivo, read-out: Toxicity LD 50
Excerpt: as §1

[3] = system: gastric acid production caused by 4-methylhistamine; assay: gastric acid secretion-inhibiting activity (4-methylhistamine-stimulated, Heidenhain pouch); assay type: in vivo; conditions: Canis lupus familiaris, po; p.o. (dry powder in gelatin capsules), conscious beagle hounds, i.v. infusion of 4-methylhistamine; 50% inhibition vs controls
Method: The experimental procedure described hereinafter was used to determine the gastric acid secretion-inhibiting activity:
A part of the stomach fundus of female and male beagle hounds is separated from the remainder of the stomach in the form of a pouch of the Heidenhain type by a modification of the method described in Rudick et al., J. Surgical Research 7, 383-398 (1967). In the pouch there is fitted a steel cannula which is conducted externally through the abdominal wall. Before each experiment the animals receive no food for 18 hours, but receive water ad libitum. They are conscious and standing during the experiment and their gastric acid secretion is stimulated by the intravenous infusion of 4-methylhistamine, a selective […] of the histamine H2 -receptors. The gastric acid production is determined in 15 minute fractions of the stomach pouch juice. As soon as the gastric acid production has a constant value, the substances to be tested are administered orally as a dry powder filled into gelatin capsules. The ED50 is that dosage of a test substance which brings about a 50% inhibition of the gastric acid production caused by 4-methylhistamine in the treated animals in comparison to the controls.
as §1

[4] = p.o., single oral administration to mice

Structure (SMILES)	ED50 [1] [mg/kg]	LD50 ([2]; po) [mg/kg]	ED50 [3] [mg/kg]	LD50 [2, 4] [mg/kg]
COc1cc[n+](-c2nc3cc(C(F)(F)F)ccc3[n-]2)c(CSCC(C)(C)OC(C)=O)c1C [G, Intramolecularly deprotonized 2-[[(2-acetoxy-2-methylpropyl)thio]methyl]-4-methoxy-3-methyl-1-[5-(trifluoromethyl)-2-benzimidazolyl]pyridinium cation]	2.8	2500 to 5000	1.5	–
CCOC(C)(C)CSCc1c(C)c(OC)cc[n+]1-c1nc2cc(C(F)(F)F)ccc2[n-]1 [J, Intramolecularly deprotonized 2-[[(2-ethoxy-2-methylpropyl)thio]methyl]-4-methoxy-3-methyl-1-[5-(trifluoromethyl)-2-benzimidazolyl]pyridinium cation]	4.6	> 5000	3.7	–
COc1cc[n+](-c2nc3ccc(C(F)(F)F)cc3[nH]2)c(CSCC(C)(C)OC(C)=O)c1C.[Cl-] [F, 2-[[(2-Acetoxy-2-methylpropyl)thio]methyl]-4-methoxy-3-methyl-1-[5-(trifluoromethyl)-2-benzimidazolyl]pyridinium chloride]	1.9	–	1.8	1250 to 2500
COCCOC(C)(C)CSCc1c(C)c(OC)cc[n+]1-c1nc2cc(C(F)(F)F)ccc2[n-]1 [D, Intramolecularly deprotonized 4-methoxy-2-[[[2-(2-methoxyethoxy)-2-methylpropyl]thio]methyl]-3-methyl-1-[5-(trifluoromethyl)-2-benzimidazolyl]pyridinium cation]	7	2500 to 5000	4.8	–
COc1cc[n+](-c2nc3cc(C(F)(F)F)ccc3[n-]2)c(CSCC(C)(C)OCCO)c1C [B, Intramolecularly deprotonized 2-[[[2-(2-hydroxyethoxy)-2-methylpropyl]thio]methyl]-4-methoxy-3-methyl-1-[5-(trifluoromethyl)-2-benzimidazolyl]pyridinium cation]	6.1	2500 to 5000	3.9	–
COCCOC(C)(C)CSCc1c(C)c(OC)cc[n+]1-c1nc2ccc(C(F)(F)F)cc2[nH]1.CS(=O)(=O)[O-] [C, 4-Methoxy-2-[[[2-(2-methoxyethoxy)-2-methylpropyl}thio]methyl]-3-methyl-1-[5-(trifluoromethyl)-2-benzimidazolyl]pyridinium methanesulfonate]	6	–	5.5	1000 to 2000
COc1cc[n+](-c2nc3ccc(C(F)(F)F)cc3[nH]2)c(CSCC(C)(C)OCCO)c1C.CS(=O)(=O)[O-] [A, 2-[[[2-(2-Hydroxyethoxy)-2-methylpropyl]thio]-methyl]-4-methoxy-3-methyl-1-[5-(trifluoromethyl)-2-benzimidazolyl]pyridinium methanesulfonate]	4.4	–	4.9	2500 to 5000
CCOC(C)(C)CSCc1c(C)c(OC)cc[n+]1-c1nc2ccc(C(F)(F)F)cc2[nH]1.CS(=O)(=O)[O-] [H, 2-[[(2-Ethoxy-2-methylpropyl)thio]methyl]-4-methoxy-3-methyl-1-[5-(trifluoromethyl)-2-benzimidazolyl]pyridinium methanesulfonate]	3.2	–	4.3	–
CCOC(C)(C)CSCc1c(C)c(OC)cc[n+]1-c1nc2ccc(C(F)(F)F)cc2[nH]1.[Cl-] [I, 2-[[(2-Ethoxy-2-methylpropyl)thio]methyl]-4-methoxy-3-methyl-1-[5-(trifluoromethyl)-2-benzimidazolyl]pyridinium chloride]	4.1	–	3.8	2500 to 5000
COc1cc[n+](-c2nc3ccc(C(F)(F)F)cc3[nH]2)c(CSCC(C)(C)OC(C)=O)c1C.CS(=O)(=O)[O-] [E, 2-[[(2-Acetoxy-2-methylpropyl)thio]methyl]-4-methoxy-3-methyl-1-[5-(trifluoromethyl)-2-benzimidazolyl]pyridinium methanesulfonate]	3.2	–	3	2500 to 5000

From patent US4950677A, “Benzimidazole derivative compounds and method of making” (Hoffmann-La Roche Inc., priority 1987, dated 1990)
